Laboratory results taken from patent EP0080305A1, “Antiviral 2'-deoxyuridines, their preparation and use” (BEECHAM GROUP PLC, priority 1981, dated 1983).
Where a name gives a salt, the structure may show the parent alone. Read-outs that look alike come from different tables or passages of the source.

Tests used:
[1] = system: Herpes simplex type 1 virus (HFEM strain); experiment: Plaque reduction test in Vero cells infected with Herpes simplex type 1 virus; type: cell-based
Method: (§1) Vero (African Green Monkey Kidney) cells were grown to confluence in 6 well multidishes, each well being 3.5 cm in diameter. The cells were incubated with Herpes simplex type 1 virus (HFEM strain) and overlaid with 0.5 mL of 0.9% agarose (w/v) in maintenance medium containing the test compound at a range of concentrations from 3 µg/mL in half-log dilution steps. The virus infected cultures were then incubated at 37 °C for 6 days before fixing in 4% formaldehyde solution and staining with carbolfuchsin. The dishes were then examined to find what concentration of test compound causing a 50% reduction in the number of virus plaques formed (PDD50 value) and the minimum concentration of test compound which killed the cell monolayer, leaving a clear zone devoid of cells and virus plaques (MTD).

[2] = Minimum concentration killing the Vero cell monolayer, read in the plaque reduction test; type: cell-based, African Green Monkey; settings: african green monkey; minimum concentration which killed the cell monolayer; virus-infected Vero cells, 6 days at 37°C; read-out: MTD
Method: as §1

[3] = Human alphaherpesvirus 1, 144 h, concentration causing a 50% reduction in the number of virus plaques, 6 days at 37°C, read-out: PDD50 (the source's name)
[4] = Human alphaherpesvirus 1, 144 h, same PDD50 values given in µM, 6 days at 37°C, read-out: PDD50 (the source's name)
[5] = Human alphaherpesvirus 1, Vero, 144 h, read-out: PDD50, concentration causing a 50% reduction in the number of virus plaques, 6 days at 37°C
[6] = Human alphaherpesvirus 1, Vero, 144 h, read-out: PDD50, same PDD50 values given in µM, 6 days at 37°C

SMILES	IC50 [1, 3] [µg/mL]	IC50 [1, 4] [µM]	MCC at 144 h [2] [µg/mL]	IC50 [1, 5] [µg/mL]	IC50 [1, 6] [µM]
NC(Cc1ccc(F)cc1)C(=O)OC[C@H]1O[C@@H](n2cc(/C=C/Br)c(=O)[nH]c2=O)C[C@@H]1OC(=O)C(N)Cc1ccc(F)cc1 (mixture of isomers) [Example 15, E-5-(2-Bromovinyl)-3',5'-di-(p-fluoro-DL-phenylalanyl)-2'-deoxyuridine bis trifluoroacetate]	0.8	0.9	> 100		
CC(C)(C)OC(=O)N[C@@H](Cc1ccccc1)C(=O)OC[C@H]1O[C@@H](n2cc(/C=C/Br)c(=O)[nH]c2=O)C[C@@H]1OC(=O)[C@H](Cc1ccccc1)NC(=O)OC(C)(C)C [Example 1, E-5-(2-Bromovinyl)-3',5'-di-O-(tertbutoxycarbonylphenylalanyl)-2'-deoxyuridine]	1.1	1.33	> 100		
CC(C)(C)OC(=O)N[C@@H](Cc1ccccc1)C(=O)O[C@H]1C[C@H](n2cc(/C=C/Br)c(=O)[nH]c2=O)O[C@@H]1CO [Example 2, E-5-(2-bromovinyl)-3'-O-(tertbutoxycarbonylphenylalanyl)-2'-deoxyuridine]	0.16	0.28	> 100		
CC(C)(C)OC(=O)N[C@@H](Cc1ccccc1)C(=O)OC[C@H]1O[C@@H](n2cc(/C=C/Br)c(=O)[nH]c2=O)C[C@@H]1O [Example 3, E-5-(2-Bromovinyl)-5'-O-(tertbutoxycarbonylphenylalanyl)-2'-deoxyuridine]	0.25	0.43	> 100		
CC(C)(C)OC(=O)NCC(=O)OC[C@H]1O[C@@H](n2cc(/C=C/Br)c(=O)[nH]c2=O)C[C@@H]1OC(=O)CNC(=O)OC(C)(C)C [Example 4, E-5-(2-Bromovinyl)-3',5'-di-O-(tert.butoxycarbonylglycyl)-2'-deoxyurdine]	1.95	3.01	> 100		
CC(C)(C)OC(=O)NCC(=O)O[C@H]1C[C@H](n2cc(/C=C/Br)c(=O)[nH]c2=O)O[C@@H]1CO [Example 5, E-5-(2-Bromovinyl)-3'-O-(tert.butoxycarbonylglycyl)-2'-deoxyuridine]	0.48	0.98	> 100		
CC(C)(C)OC(=O)NCC(=O)OC[C@H]1O[C@@H](n2cc(/C=C/Br)c(=O)[nH]c2=O)C[C@@H]1O [Example 6, E-5-(2-Bromovinyl)-5'-O-(tert.-butoxycarbonylglycyl)-2'-deoxyuridine]	0.54	1.1	> 100		
NC(Cc1ccccc1)C(=O)O[C@H]1C[C@H](n2cc(/C=C/Br)c(=O)[nH]c2=O)O[C@@H]1CO (stereo partly drawn) [Example 8, E-5-(2-Bromovinyl)-3'-O-phenylalanyl-2'-deoxyuridine trifluoroacetate]			> 100	0.45	0.76
NC(Cc1ccccc1)C(=O)OC[C@H]1O[C@@H](n2cc(/C=C/Br)c(=O)[nH]c2=O)C[C@@H]1OC(=O)C(N)Cc1ccccc1 (stereo partly drawn) [Example 10]			> 100	0.19	0.24
CC(C)C[C@H](NC(=O)OC(C)(C)C)C(=O)OC[C@H]1O[C@@H](n2cc(/C=C/Br)c(=O)[nH]c2=O)C[C@@H]1OC(=O)[C@H](CC(C)C)NC(=O)OC(C)(C)C [Example 12, E-5-(2-Bromovinyl)-3',5'-di(t-butoxycarbonyl-L-leucyl)-2^1-deoxyuridine]	0.86	1.13	100		
NCC(=O)OC[C@H]1O[C@@H](n2cc(/C=C/Br)c(=O)[nH]c2=O)C[C@@H]1O [Example 13, E-5-(2-Bromovinyl)-5'-glycyl-2'-deoxyuridine trifluoroacetate]			> 100	0.94	1.87
NCC(=O)OC[C@H]1O[C@@H](n2cc(/C=C/Br)c(=O)[nH]c2=O)C[C@@H]1OC(=O)CN [Example 14, E-5-(2-Bromovinyl)-3',5'-di-glycyl-2'-deoxyuridine bis trifluoroacetate]			> 100	0.36	0.53
